Converted amounts (≈) assume the structure as drawn. Read-outs that look alike come from different tables or passages of the source.
What was measured:
in vitro = details: African green monkey
Mtb [1] = test: microbe, parasite or virus in culture; type: cell-based, Mycobacterium tuberculosis; details: Mycobacterium tuberculosis, read-out: MIC (III)
Mtb [2] = test: microbe, parasite or virus in culture; type: cell-based, Mycobacterium tuberculosis; details: Mycobacterium tuberculosis
[3] = read-out: MIC, microplate alamar blue assay (MABA; I)

Structure (SMILES) | CC50 (in vitro) | MIC (Mtb [1]) | MIC (Mtb [2]; read-out: MIC (I)) | MIC (Mtb [2]; [3])
COCCOC(=O)NC(=O)c1ccsc1NC(=O)c1nc2ccccc2s1 [Compound 18] | > 50 µg/mL | > 25 µg/mL | < 1 µg/mL | 
CC(C)(C)C(=O)Nc1cc(C(=O)Nc2sccc2C(=O)NC(=O)OCCF)ccn1 [Compound 29] | 25 to 50 µg/mL (≈ 57.3 to 115 µM) | > 25 µg/mL | < 1 µg/mL | 
CC(C)(C)C(=O)Nc1cc(C(=O)Nc2sccc2C(=O)NC(=O)OCCN2CCOCC2)ccn1 [Compound 32] | > 50 µg/mL | > 25 µg/mL | > 3 µg/mL | 
CCOC(=O)NC(=O)c1ccsc1NC(=O)c1ccnc(NC(=O)N2CCOCC2)c1 [Compound 33] | > 50 µg/mL | > 25 µg/mL | < 1 µg/mL | 
CC(CN1CCOCC1)OC(=O)NC(=O)c1ccsc1NC(=O)c1nc2ccccc2s1 (centres unmarked) [Compound 34] | < 25 µg/mL | 5 to 25 µg/mL (≈ 10.5 to 52.7 µM) | > 3 µg/mL | 
O=C(NC(=O)c1ccsc1NC(=O)c1nc2ccccc2s1)OC1COC1 [Compound 35] | < 25 µg/mL | > 25 µg/mL | < 1 µg/mL | 
CCOC(=O)NC(=O)c1ccsc1NC(=O)c1cc(NC(=O)C(C)(C)C)ncn1 [Compound 36] | > 50 µg/mL | > 25 µg/mL | 1 to 3 µg/mL (≈ 2.38 to 7.15 µM) | 
O=C(NC(=O)c1ccsc1NC(=O)c1nc2ccccc2s1)OCCF [Compound 37] | > 50 µg/mL | > 25 µg/mL | < 1 µg/mL | 
CC(C)OC(=O)NC(=O)c1ccsc1NC(=O)c1nc2ccccc2s1 [Compound 41] | < 25 µg/mL | > 25 µg/mL | < 1 µg/mL | 
CCOC(=O)NC(=O)c1ccsc1NC(=O)c1ccc2scnc2c1 [Compound 43] | > 50 µg/mL | 5 to 25 µg/mL (≈ 13.3 to 66.6 µM) | < 1 µg/mL | 
CCOC(=O)NC(=O)c1ccsc1NC(=O)c1ccnc(NC(=O)CN2CCOCC2)c1 [Compound 46] | > 50 µg/mL | > 25 µg/mL | < 1 µg/mL | 
CCOC(=O)NC(=O)c1ccsc1NC(=O)c1ccnc(NC(=O)N2CCS(=O)(=O)CC2)c1 [Compound 47] | > 50 µg/mL | > 25 µg/mL | < 1 µg/mL | 
O=C(NC(=O)c1ccsc1NC(=O)c1ccnc(NC(=O)N2CCOCC2)c1)OCCF [Compound 48] | > 50 µg/mL | > 25 µg/mL | < 1 µg/mL | 
CCOC(=O)NC(=O)c1ccsc1NC(=O)c1ccnc(NC(=O)N2CCN(C)CC2)c1.Cl.Cl [Compound 49] | > 50 µg/mL | > 25 µg/mL | 1 to 3 µg/mL | 
CCOC(=O)NC(=O)c1ccsc1NC(=O)c1ccnc(NC(=O)N2CCC(F)(F)CC2)c1 [Compound 50] | 25 to 50 µg/mL (≈ 51.9 to 104 µM) | > 25 µg/mL | < 1 µg/mL | 
CCOC(=O)NC(=O)c1ccsc1NC(=O)c1ccnc(NC(=O)N2CCCCC2)c1 [Compound 51] | 25 to 50 µg/mL (≈ 56.1 to 112 µM) | > 25 µg/mL | < 1 µg/mL | 
CCOC(=O)NC(=O)c1ccsc1NC(=O)c1nc2cc(C#N)cnc2s1 [Compound 54] |  | > 25 µg/mL | < 1 µg/mL | 
CCOC(=O)NC(=O)c1ccsc1NC(=O)c1nc2c(s1)CCNC2=O [Compound 55] |  | > 25 µg/mL | > 3 µg/mL | 
CCOC(=O)NC(=O)c1ccsc1NC(=O)c1cn2ccncc2n1 [Compound 78] |  | > 25 µg/mL | > 3 µg/mL | 

Structure (SMILES) | CC50 (in vitro) | MIC (Mtb [1]) | MIC (Mtb [2]; read-out: MIC (I)) | MIC (Mtb [2]; [3])
CCOC(=O)NC(=O)c1ccsc1NC(=O)c1nc2c(s1)CCN(CC)C2 [Compound 79] |  | > 25 µg/mL | 1 to 3 µg/mL (≈ 2.45 to 7.34 µM) | 
CCOC(=O)NC(=O)c1ccsc1NC(=O)c1cnc2ncccn12 [Compound 80] |  | > 25 µg/mL | 1 to 3 µg/mL (≈ 2.78 to 8.35 µM) | 
CCOC(=O)NC(=O)c1ccsc1NC(=O)c1cnc2ccnn2c1 [Compound 81] |  | > 25 µg/mL | < 1 µg/mL | 
CCOC(=O)NC(=O)c1ccsc1NC(=O)c1nc2c(s1)CCN(C(=O)OC)C2 [Compound 95] |  | > 25 µg/mL | < 1 µg/mL | 
CCOC(=O)NC(=O)c1ccsc1NC(=O)c1nc2c(s1)CCN(S(C)(=O)=O)C2 [Compound 96] |  | > 25 µg/mL | < 1 µg/mL | 
CCOC(=O)NC(=O)c1c(NC(=O)c2nc3ccccc3s2)sc2c1CCOC2 [Compound 242] | > 50 µg/mL | > 25 µg/mL |  | 
CCOC(=O)NC(=O)c1c(C2CC2)csc1NC(=O)c1nc2ccccc2s1 [Compound 245] |  | > 25 µg/mL | > 3 µg/mL | 
CCOC(=O)NC(=O)c1ccsc1NC(=O)c1cccnn1 [Compound 249] |  | > 25 µg/mL | > 3 µg/mL | 
CCOC(=O)NC(=O)c1ccsc1NC(=O)c1cc2ncccn2n1 [Compound 250] |  | 5 to 25 µg/mL (≈ 13.9 to 69.6 µM) | < 1 µg/mL | 
CCOC(=O)NC(=O)c1ccsc1NC(=O)c1ccn2nccc2c1 [Compound 251] |  | 5 to 25 µg/mL (≈ 14 to 69.8 µM) | < 1 µg/mL | 
CCOC(=O)NC(=O)c1ccsc1NC(=O)c1ccn2nccc2n1 [Compound 252] |  | > 25 µg/mL | > 3 µg/mL | 
CCOC(=O)NC(=O)c1ccsc1NC(=O)c1cnn2cccnc12 [Compound 253] |  | > 25 µg/mL | > 3 µg/mL | 
CC(C)OC(=O)NC(=O)c1ccsc1NC(=O)c1cn2ccccc2n1 [Compound 323] |  | > 25 µg/mL | 1 to 3 µg/mL (≈ 2.69 to 8.06 µM) | 
O=C(NC(=O)c1ccsc1NC(=O)c1cnc2ccnn2c1)OC1CCC1 [Compound 324] |  | > 25 µg/mL | < 1 µg/mL | 
CC(OC(=O)NC(=O)c1ccsc1NC(=O)c1nc2cnccc2s1)C(F)(F)F (centres unmarked) [Compound 325] |  | > 25 µg/mL | < 1 µg/mL | 
CC(OC(=O)NC(=O)c1ccsc1NC(=O)c1cnc2ccnn2c1)C(F)(F)F (centres unmarked) [Compound 326] |  | > 25 µg/mL | > 3 µg/mL | 
CCOC(=O)NC(=O)c1ccsc1NC(=O)c1nc2cc(CNC(=O)OC(C)(C)C)cnc2s1 [Compound 411] | 25 to 50 µg/mL (≈ 49.4 to 98.9 µM) |  |  | < 1 µg/mL
CCOC(=O)NC(=O)c1ccsc1NC(=O)c1nc2ccc(OC)cc2s1 [Compound 412] | > 50 µg/mL |  |  | < 1 µg/mL
CCOC(=O)NC(=O)c1ccsc1NC(=O)c1ccc2sc(C(C)C)nc2c1 [Compound 413] | > 50 µg/mL |  |  | < 1 µg/mL

Structure (SMILES) | CC50 (in vitro) | MIC (Mtb [1]) | MIC (Mtb [2]; read-out: MIC (I)) | MIC (Mtb [2]; [3])
CCOC(=O)NC(=O)c1ccsc1NC(=O)c1ccc2sc(C3CC3)nc2c1 [Compound 414] | > 50 µg/mL |  |  | < 1 µg/mL
CCOC(=O)NC(=O)c1ccsc1NC(=O)c1ccc2sc(C(C)(C)C)nc2c1 [Compound 415] | > 50 µg/mL |  |  | > 3 µg/mL
CCOC(=O)NC(=O)c1ccsc1NC(=O)c1nc2cc(CN)cnc2s1 [Compound 416] | > 50 µg/mL |  |  | 1 to 3 µg/mL (≈ 2.47 to 7.4 µM)
O=C(Nc1sccc1C(=O)NC(=O)N1CCCCC1)c1nc2cnccc2s1 [Compound 428] | > 50 µg/mL |  |  | 1 to 3 µg/mL (≈ 2.41 to 7.22 µM)
O=C(Nc1sccc1C(=O)OC1CCCC1)c1nc2ccccc2s1 [Compound 429] | > 50 µg/mL |  |  | > 3 µg/mL
O=C(Nc1sccc1C(=O)OC1CCCCC1)c1nc2ccccc2s1 [Compound 430] | > 50 µg/mL |  |  | > 3 µg/mL
COC(=O)COC(=O)NC(=O)c1ccsc1NC(=O)c1nc2cnccc2s1 [Compound 431] | 25 to 50 µg/mL (≈ 59.5 to 119 µM) |  |  | < 1 µg/mL
COC(=O)c1ccsc1NC(=O)c1nc2cnccc2s1 [Compound 432] | 25 to 50 µg/mL (≈ 78.3 to 157 µM) |  |  | > 3 µg/mL
CC(C)OC(=O)NC(=O)c1ccsc1NC(=O)c1cn2ccc(C#N)cc2n1 [Compound 433] | 25 to 50 µg/mL (≈ 62.9 to 126 µM) |  |  | 1 to 3 µg/mL (≈ 2.52 to 7.55 µM)
O=C(NC(=O)c1ccsc1NC(=O)c1nc2ncccc2s1)OCC(F)(F)F [Compound 434] | 25 to 50 µg/mL (≈ 58.1 to 116 µM) |  |  | > 3 µg/mL
O=C(Nc1sccc1C(=O)Nc1nccs1)c1nc2cnccc2s1 [Compound 435] | 25 to 50 µg/mL (≈ 64.5 to 129 µM) |  |  | > 3 µg/mL
COCCOC(=O)NC(=O)c1ccsc1NC(=O)c1nc2ncccc2s1 [Compound 436] | 25 to 50 µg/mL (≈ 61.5 to 123 µM) |  |  | > 3 µg/mL
O=C(NC(=O)c1ccsc1NC(=O)c1nc2ncccc2s1)OCCOCc1ccccc1 [Compound 437] | < 25 µg/mL |  |  | < 1 µg/mL
CCOC(=O)NC(=O)c1ccsc1NC(=O)c1cn2cc(S(C)(=O)=O)ccc2n1 [Compound 438] | 25 to 50 µg/mL (≈ 57.3 to 115 µM) |  |  | < 1 µg/mL
CC(C)OC(=O)NC(=O)c1ccsc1NC(=O)c1cn2cc(S(C)(=O)=O)ccc2n1 [Compound 439] | 25 to 50 µg/mL (≈ 55.5 to 111 µM) |  |  | > 3 µg/mL
O=C(Nc1sccc1C(=O)Nc1cnccn1)c1nc2cnccc2s1 [Compound 440] | 25 to 50 µg/mL (≈ 65.4 to 131 µM) |  |  | > 3 µg/mL
O=C(Nc1sccc1C(=O)Nc1ncccn1)c1nc2cnccc2s1 [Compound 441] | 25 to 50 µg/mL (≈ 65.4 to 131 µM) |  |  | < 1 µg/mL
O=C(Nc1sccc1C(=O)Nc1cccnn1)c1nc2cnccc2s1 [Compound 442] | 25 to 50 µg/mL (≈ 65.4 to 131 µM) |  |  | 1 to 3 µg/mL (≈ 2.61 to 7.84 µM)

— US20160194299A1 (priority 2013, published 2016)
